According to PMC12128149, “Molecular Hybrids of Quinoline and Sulfonamide: Design, Synthesis and in Vitro Anticancer Studies” (ChemistryOpen, 2024):
Structures can show the parent of a compound that is named as a salt.

How the values were obtained:
Format in all cases: cell-based
HCT116 = experiment: MTS cytotoxicity testing, HCT116 cells; conditions: Homo sapiens, HCT-116; ITK/BTK null cells
Experimental: (§1) Cell lines: The cells were sourced from either the DSMZ (Braunschweig, Germany) or the ATCC (Middlesex, UK). They were maintained in the recommended growth medium, supplemented with 10 % fetal calf serum, antibiotics (100 U/mL penicillin and […]), 2 mM glutamine, 1 mM NaHCO3, 1 mM sodium pyruvate, and 20 mM HEPES. The cells were incubated at 37 °C in a humidified atmosphere with 5 % CO2. Cell lines were routinely verified and checked for mycoplasma contamination every two weeks to once a month.
(§2) MTS cytotoxicity testing: An MTS assay method was developed in our laboratory for routine drug screening. This technique was used to assess the cytotoxicity of compounds, and the IC50 values were determined as previously described.[27]

U2OS = experiment: MTS cytotoxicity testing, U2OS cells; conditions: Homo sapiens, ITK/BTK null cells
Experimental: as §1, §2

[1] = MTS cytotoxicity testing, BJ non‐cancer cells; conditions: human
Experimental: as §1, §2

RAMOS = experiment: MTS cytotoxicity testing, RAMOS cells; conditions: Homo sapiens, BTK high cells
Experimental: as §1, §2

Jurkat = experiment: MTS cytotoxicity testing, Jurkat cells; conditions: Homo sapiens, ITK high cells
Experimental: as §1, §2

[2] = MTS cytotoxicity testing, MRC‐5 non‐cancer cells; conditions: human
Experimental: as §1, §2

A549 = experiment: MTS cytotoxicity testing, A549 cells; conditions: Homo sapiens, ITK/BTK null cells
Experimental: as §1, §2

MOLT‐4 = experiment: MTS cytotoxicity testing, MOLT‐4 cells; conditions: Homo sapiens, ITK high cells
Experimental: as §1, §2

CCRF‐CEM = experiment: MTS cytotoxicity testing, CCRF‐CEM cells; conditions: Homo sapiens, ITK high cells
Experimental: as §1, §2

K562 = experiment: MTS cytotoxicity testing, K562 cells; conditions: Homo sapiens, BTK high cells
Experimental: as §1, §2

SMILES | IC50 (HCT116) [µM] | IC50 (U2OS) [µM] | IC50 [1] [µM] | IC50 (RAMOS) [µM] | IC50 (Jurkat) [µM] | IC50 [2] [µM] | IC50 (A549) [µM] | IC50 (MOLT‐4) [µM] | IC50 (CCRF‐CEM) [µM] | IC50 (K562) [µM]
COc1cc(-c2cc(S(=O)(=O)N3CCCCC3)c3ncccc3c2)cc(Cl)c1O [9h, 2‐chloro‐6‐methoxy‐4‐(8‐(piperidin‐1‐ylsulfonyl)quinolin‐6‐yl)phenol] | > 50 | > 50 | > 50 | > 50 | > 50 | > 50 | > 50 | > 50 | > 50 | > 50
O=S(=O)(c1cc(-c2ccccc2F)cc2cccnc12)N1CCCCC1 [9c, 6‐(2‐fluorophenyl)‐8‐(piperidin‐1‐ylsulfonyl)quinoline] | > 50 | > 50 | > 50 | > 50 | 12.7 ± 5.45 | > 50 | > 50 | > 50 | > 50 | > 50
O=S(=O)(c1cc(-c2ccc(O)c(F)c2)cc2cccnc12)N1CCCCC1 [9f, 2‐fluoro‐4‐(8‐(piperidin‐1‐ylsulfonyl)quinolin‐6‐yl)phenol] | > 50 | > 50 | > 50 | 9.69 ± 2.41 | 13 ± 6.43 | > 50 | > 50 | > 50 | 17.1 ± 4.64 | 9.69 ± 2.41
O=S(=O)(c1cc(-c2ccc(O)cc2)cc2cccnc12)N1CCCCC1 [9e, 4‐(8‐(piperidin‐1‐ylsulfonyl)quinolin‐6‐yl)phenol] | > 50 | > 50 | > 50 | 5.47 ± 1.71 | 7.43 ± 7.4 | > 50 | > 50 | > 50 | 28.6 ± 7.64 | 5.47 ± 1.71
Nc1cccc(-c2cc(S(=O)(=O)N3CCCCC3)c3ncccc3c2)c1 [9j, 3‐(8‐(piperidin‐1‐ylsulfonyl)quinolin‐6‐yl)aniline hydrochloride] | > 50 | > 50 | > 50 | > 50 | > 50 | > 50 | > 50 | 5.57 ± 7.56 | > 50 | > 50
O=S(=O)(c1cc(-c2cccc(Cl)c2)cc2cccnc12)N1CCCCC1 [9b, 6‐(3‐chlorophenyl)‐8‐(piperidin‐1‐ylsulfonyl)quinoline] | > 50 | > 50 | > 50 | > 50 | > 50 | > 50 | > 50 | > 50 | > 50 | > 50
O=S(=O)(c1cc(-c2ccccc2Br)cc2cccnc12)N1CCCCC1 [9d, 6‐(2‐bromophenyl)‐8‐(piperidin‐1‐ylsulfonyl)quinoline] | > 50 | > 50 | > 50 | 12.7 ± 3.71 | 13.5 ± 6.25 | > 50 | > 50 | > 50 | > 50 | > 50
O=S(=O)(c1cc(-c2ccc3nc[nH]c3c2)cc2cccnc12)N1CCCCC1 [9p, 6‐(1H‐benzo[d]imidazol‐6‐yl)‐8‐(piperidin‐1‐ylsulfonyl)quinoline hydrochloride] | > 50 | > 50 | > 50 | > 50 | 21.2 ± 3.49 | > 50 | > 50 | > 50 | 13.2 ± 1.25 | > 50
N#Cc1cccc(-c2cc(S(=O)(=O)N3CCCCC3)c3ncccc3c2)c1 [9k, 3‐(8‐(piperidin‐1‐ylsulfonyl)quinolin‐6‐yl)benzonitrile] | > 50 | > 50 | > 50 | > 50 | > 50 | > 50 | > 50 | > 50 | > 50 | > 50
O=S(=O)(c1cc(-c2ccc(C(F)(F)F)cc2)cc2cccnc12)N1CCCCC1 [9m, 8‐(piperidin‐1‐ylsulfonyl)‐6‐(4‐(trifluoromethyl)phenyl)quinoline] | > 50 | > 50 | > 50 | 8.11 ± 1.29 | 11.3 ± 1.13 | > 50 | > 50 | > 50 | > 50 | > 50
O=S(=O)(c1cc(-c2ccccc2)cc2cccnc12)N1CCCCC1 [9a, 6‐phenyl‐8‐(piperidin‐1‐ylsulfonyl)quinoline] | > 50 | > 50 | > 50 | > 50 | > 50 | > 50 | > 50 | > 50 | > 50 | > 50
O=S(=O)(c1cc(-c2ccnc(F)c2)cc2cccnc12)N1CCCCC1 [9n, 6‐(2‐fluoropyridin‐4‐yl)‐8‐(piperidin‐1‐ylsulfonyl)quinoline] | > 50 | > 50 | > 50 | 2.76 ± 0.79 | > 50 | > 50 | > 50 | > 50 | 19.4 ± 0.78 | > 50
COc1cccc(-c2cc(S(=O)(=O)N3CCCCC3)c3ncccc3c2)c1 [9i, 6‐(3‐methoxyphenyl)‐8‐(piperidin‐1‐ylsulfonyl)quinoline] | > 50 | > 50 | > 50 | > 50 | 8.43 ± 6.43 | > 50 | > 50 | > 50 | 38.6 ± 4.64 | > 50
O=S(=O)(c1cc(-c2cc(Cl)c(O)c(Cl)c2)cc2cccnc12)N1CCCCC1 [9g, 2,6‐dichloro‐4‐(8‐(piperidin‐1‐ylsulfonyl)quinolin‐6‐yl)phenol] | > 50 | > 50 | > 50 | > 50 | > 50 | > 50 | > 50 | > 50 | > 50 | > 50
COc1cc(-c2cc(S(=O)(=O)N3CCCCC3)c3ncccc3c2)ccn1 [9o, 6‐(2‐methoxypyridin‐4‐yl)‐8‐(piperidin‐1‐ylsulfonyl)quinoline] | > 50 | > 50 | > 50 | 6.76 ± 0.79 | 11.4 ± 3.49 | > 50 | > 50 | > 50 | 15.3 ± 2.25 | > 50
O=S(=O)(c1cc(-c2cccc(OC(F)(F)F)c2)cc2cccnc12)N1CCCCC1 [9l, 8‐(piperidin‐1‐ylsulfonyl)‐6‐(3‐(trifluoromethoxy)phenyl)quinolone] | > 50 | > 50 | > 50 | > 50 | 12.1 ± 6.43 | > 50 | > 50 | > 50 | > 50 | > 50
